The values below come from article PMC4680881 (Scientific Reports, 2015).

Data set [1] has as its target T1, rMoPrP aggregates (Mus musculus, UniProt P04925). The data set can be described thus: biochemical. The class given is binding.
In data set [2] the target is T1, rMoPrP aggregates. The data set can be described thus: biochemical. In kind it is binding. This is another data set of the same source.
The target of data set [3] is T2, PrP^Sc deposits (Mus musculus, UniProt P04925). The settings on record: 100 μM compound; for Fluorescence staining: brain sections from mock-infected mice; for Fluorescence staining of PrP^Sc deposits: brain slices from mBSE-infected mice.
T2 sequence (P04925 23-230 limits assumed): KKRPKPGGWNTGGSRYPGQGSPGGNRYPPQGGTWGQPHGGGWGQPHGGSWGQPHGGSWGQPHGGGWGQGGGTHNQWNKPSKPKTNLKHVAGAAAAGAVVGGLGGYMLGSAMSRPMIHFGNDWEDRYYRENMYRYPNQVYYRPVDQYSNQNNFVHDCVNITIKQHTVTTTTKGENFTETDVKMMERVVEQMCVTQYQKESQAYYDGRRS
Data set [4] addresses T2, PrP^Sc deposits.
Another data set has as its system amyloid plaques. The settings on record: cited from earlier work.
The next data set has as its system Aβ aggregates. The settings on record: cited from earlier work.
For data set [5], the target named is T2, PrP^Sc deposits. In kind it is in vivo.
Data set [6] addresses T2, PrP^Sc deposits. The class given is in vivo. The source holds these as a separate data set.
For data set [7] the following is noted: mouse, in vivo; cited from earlier work.
For the next data set, the target named is Aβ (1–42) fibrils. The settings on record: cited from earlier work.

“And” between values parts separate entries of the source, which are not always exact repeats. Equal entries are not always repeated. Where two headings read alike, the source gives them in different places.

T1 sequence (P04925 23-231 limits assumed): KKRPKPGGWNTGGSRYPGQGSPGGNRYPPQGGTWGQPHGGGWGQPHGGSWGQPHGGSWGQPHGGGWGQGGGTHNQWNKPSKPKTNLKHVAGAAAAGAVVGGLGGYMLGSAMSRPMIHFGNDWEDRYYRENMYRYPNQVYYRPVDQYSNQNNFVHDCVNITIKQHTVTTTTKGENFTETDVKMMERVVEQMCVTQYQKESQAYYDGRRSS

Take `CN(C)c1ccc(-c2cc(=O)c3cc([125I])ccc3o2)cc1` [[^125I]FL-NMe2]: on rMoPrP aggregates [1], the Bmax stood at 11.2 pmol/nmol protein and the Kd amounted to 201 nM.
On to `COc1ccc(/C=C/c2cc(=O)c3cc(I)ccc3o2)cc1` [SC-OMe, (E)-6-Iodo-2-(4-methoxystyryl) chromone], for which the Ki at rMoPrP aggregates [2] stood at 20.8 ± 0.69 nM. Further, at PrP^Sc deposits [3], the Fluorescence staining entry was “no significant signals” and the “Fluorescence staining of PrP^Sc deposits” value is recorded as “clear fluorescence images”.
For `CN(C)c1ccc(/C=C/C(=O)c2ccc([125I])cc2)cc1` [[^125I]CL-NMe2], at rMoPrP aggregates [1], the Bmax is on record as 16.7 pmol/nmol protein; the Kd is 246 nM and 224 nM.
In the case of `CNc1ccc(C=Cc2cc(=O)c3cc([125I])ccc3o2)cc1` [[^125I]SC-NHMe], the “In vitro autoradiography, distribution of radioactivity” value at PrP^Sc deposits [4] (brain sections of mock-infected mice) was “homogeneous distribution of radioactivity”. Also, the “In vitro autoradiography, signal in PrP^Sc deposit region” value at PrP^Sc deposits [4] (mBSE-infected mice, right corpus callosum region) was “high level of background and no significant accumulation of prion deposits”.
For `CN(C)c1ccc(/C=C/c2cc(=O)c3cc([125I])ccc3o2)cc1` [[^125I]SC-NMe2], on rMoPrP aggregates [1], the “fold higher binding affinity compared with [125I]AR-NMe2” value is listed as 3.5 fold; the Kd was 24.5 nM and 36.7 nM.
`CN(C)c1ccc(-c2cc(=O)c3cc(I)ccc3o2)cc1` [FL-NMe2, 6-Iodo-4′-dimethyaminoflavone]: the “Staining of amyloid plaques” value with amyloid plaques is reported as “clearly stained amyloid plaques”. Further, the “Binding affinity for Aβ aggregates” value in the data set with Aβ aggregates is reported as “high binding affinities”. In addition, on PrP^Sc deposits [3], the Fluorescence staining result is “Only background signals”.
For `Nc1ccc(/C=C/c2cc(=O)c3cc(I)ccc3o2)cc1` [SC-NH2, (E)-6-Iodo-2-(4-aminostyryl)-chromone], at rMoPrP aggregates [2], the affinity, expressed as Ki, was 58.7 ± 5.93 nM and the “fold lower binding affinity than SC-OMe” value is 2.8 fold.
Consider `COc1ccc(/C=C/c2cc(=O)c3cc([123I])ccc3o2)cc1` [[^123I]SC-OMe], for which the “%SUV” value is on record as 13.4 %SUV at PrP^Sc deposits [5] (early period (15–48 min), PBS-injected ipsilateral hemisphere of mock-infected mice); 46.5 %SUV on PrP^Sc deposits [5] (early period (15–48 min), PrP^Sc-positive upper right hemisphere of mBSE-infected mouse); 23.3 %SUV at PrP^Sc deposits [5] (early period (15–48 min), contralateral site of mBSE-infected mice); 3.7 %SUV at PrP^Sc deposits [5] (late period (50–85 min), contralateral site of mBSE-infected mice); 3.5 %SUV at PrP^Sc deposits [5] (late period (50–85 min), ipsilateral site of mock-infected mice); 7.5 %SUV on PrP^Sc deposits [5] (late period (50–85 min), right hemisphere of mBSE-infected mice). For the same molecule, the “Ex vivo autoradiography, accumulation in PrP^Sc-positive regions” value at PrP^Sc deposits [6] (mBSE-infected mice) was “significant [^123I]SC-OMe accumulation”. In addition, the “Ex vivo autoradiography, accumulation in contralateral site” value at PrP^Sc deposits [6] (mBSE-infected mice) is listed as “no significant accumulation”. The “Ex vivo autoradiography, binding in mock-infected mouse brain” value at PrP^Sc deposits [6] (mock-infected mice) is “low signals”.
As to `CN(C)c1ccc(/C=C/c2cc(=O)c3cc(I)ccc3o2)cc1` [SC-NMe2, (E)-6-Iodo-2-(4-(dimethylamino)styryl)-chromone], at rMoPrP aggregates [1], the Bmax stood at 36.3 pmol/nmol protein and the dissociation constant Kd was determined as 24.5 nM. For the same molecule, in data set [7], the “Brain uptake and washout” value is “low brain uptake and slow washout”. In addition, the “Staining of amyloid plaques” value in the data set on amyloid plaques is “clearly stained amyloid plaques”. For the same molecule, the “Binding affinity for Aβ aggregates” value in the data set on Aβ aggregates is “high binding affinities”. On PrP^Sc deposits [3], the Fluorescence staining entry was “Only background signals” and the “Fluorescence staining of PrP^Sc deposits” value is listed as “clearly labelled PrP^Sc deposits”.
As to `COc1ccc(/C=C/c2cc(=O)c3cc(I)ccc3o2)cc1OC` [SC-(OMe)2, (E)-6-Iodo-2-(3,4-dimethoxystyryl) chromone], the affinity at rMoPrP aggregates [2], expressed as Ki, was 26.6 ± 1.48 nM. In addition, at PrP^Sc deposits [3], the Fluorescence staining result is “no significant signals” and the “Fluorescence staining of PrP^Sc deposits” value was “clear fluorescence images”.
Regarding `CN(C)c1ccc(C=C2Oc3ccc(I)cc3C2=O)cc1` [AR-NMe2, 2-[(4-Dimethylaminophenyl)methylene]-5-iodo-3(2H)-benzofuranone], the “Staining of amyloid plaques” value with amyloid plaques is “clearly stained amyloid plaques”. For the same molecule, the “Binding affinity for Aβ aggregates” value in the data set on Aβ aggregates is listed as “high binding affinities”. For the same molecule, the Fluorescence staining entry on PrP^Sc deposits [3] is given as “Only background signals”.
For the molecule `Ic1ccc2nc(-c3ccc(-c4ccn[nH]4)cc3)cn2c1` [^125I-DRM106], the Kd at Aβ (1–42) fibrils was 10.1 nM.
Regarding `CN(C)c1ccc(/C=C/C(=O)c2ccc(I)cc2)cc1` [CL-NMe2, (E)-3-(4-(Dimethylamino)phenyl)-1-(4-iodophenyl) prop-2-en-1-one], the “Staining of amyloid plaques” value with amyloid plaques is “clearly stained amyloid plaques”. The “Binding affinity for Aβ aggregates” value in the data set on Aβ aggregates is recorded as “high binding affinities”. The Fluorescence staining entry at PrP^Sc deposits [3] was “Only background signals”.
Take `[125I]c1ccc2nc(-c3ccc(-c4ccn[nH]4)cc3)cn2c1` [^125I-DRM106]: in the data set on Aβ (1–42) fibrils, the Bmax is given as 34.3 pmol/nmol.
On to `CN(C)c1ccc(/C=C2\Oc3ccc([125I])cc3C2=O)cc1` [[^125I]AR-NMe2], for which, on rMoPrP aggregates [1], the Bmax is 34.9 pmol/nmol protein; the dissociation constant Kd was 125 nM and 119 nM.
As to `O=c1cc(/C=C/c2ccc(OCCO)cc2)oc2ccc(I)cc12` [SC-OEtOH, (E)-6-Iodo-2-(4-hydroxyethoxystyryl)-chromone], the affinity at rMoPrP aggregates [2], expressed as Ki, was 221 ± 46.7 nM.
Still for that read-out and setting: for `O=c1cc(/C=C/c2ccc(O)cc2)oc2ccc(I)cc12` [SC-OH, (E)-6-Iodo-2-(4-hydroxylstyryl)-chromone] the value was 35 ± 3.72 nM.
In the case of `CNc1ccc(/C=C/c2cc(=O)c3cc(I)ccc3o2)cc1` [SC-NHMe, (E)-6-Iodo-2-(4-(methylamino)styryl)-chromone], on rMoPrP aggregates [2], the affinity, expressed as Ki, was 17 ± 5.41 nM. Also, at PrP^Sc deposits [3], the Fluorescence staining result is recorded as “no significant signals” and the “Fluorescence staining of PrP^Sc deposits” value is given as “clear fluorescence images”.

For orientation: Kd means the equilibrium constant for the complex coming apart. One may read the Ki as the equilibrium dissociation constant of an inhibitor or competing ligand from its target. Higher therefore signals weaker binding.
